Laboratory results reported in PubChem BioAssay AID248 (DTP/NCI, 2004).
“And” between values parts separate entries of the source, which are not always exact repeats. Equal entries are not always repeated. Inconclusive results and toxic doses are left out. Cut-off read from the data, not from the text of the source: active = T/C of 150% or more; inactive = T/C below 125%.

System: L1210 leukemia ip in BDF1 mice, survival T/C
Assay: NCI In Vivo Anticancer Drug Screen. Data for tumor model L1210 Leukemia (intraperitoneal) in B6D2F1 (BDF1) mice
Conditions: endpoint: mean survival time, higher = longer survival
Method in brief: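 Tumor cells were implanted, animals were treated, and survival was followed. The result divides the treated measurement by the vehicle-control measurement.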

[1] = dose: 100.0 mg/kg/injection, schedule: Q01DX001 (ip), vehicle: saline with Tween-80
[2] = dose: 100.0 mg/kg/injection, schedule: Q04DX002 (ip), vehicle: Klucel (hydroxypropylcellulose) (HPC)
[3] = dose: 200.0 mg/kg/injection, schedule: Q01DX001 (ip), vehicle: saline with Tween-80
[4] = dose: 200.0 mg/kg/injection, schedule: Q04DX002 (ip), vehicle: Klucel (hydroxypropylcellulose) (HPC)
[5] = dose: 200.0 mg/kg/injection, schedule: Q04DX003 (ip), vehicle: saline with Tween-80
[6] = dose: 400.0 mg/kg/injection, schedule: Q04DX002 (ip), vehicle: Klucel (hydroxypropylcellulose) (HPC)
[7] = dose: 400.0 mg/kg/injection, schedule: Q04DX002 (ip), vehicle: saline with Tween-80
[8] = dose: 100.0 mg/kg/injection, schedule: Q04DX003 (ip), vehicle: saline
[9] = dose: 200.0 mg/kg/injection, schedule: Q04DX003 (ip), vehicle: saline
[10] = dose: 25.0 mg/kg/injection, schedule: Q01DX009 (ip), vehicle: saline with Tween-80
[11] = dose: 50.0 mg/kg/injection, schedule: Q01DX009 (ip), vehicle: saline with Tween-80
[12] = dose: 100.0 mg/kg/injection, schedule: Q01DX009 (ip), vehicle: saline with Tween-80
[13] = dose: 200.0 mg/kg/injection, schedule: Q01DX009 (ip), vehicle: saline with Tween-80
[14] = dose: 400.0 mg/kg/injection, schedule: Q04DX003 (ip), vehicle: saline
[15] = dose: 400.0 mg/kg/injection, schedule: Q01DX001 (ip), vehicle: saline with Tween-80

Measured: T/C

CC(C)c1nc2c(n1Cc1ccccc1)C=C(C(=O)c1ccccc1)S(=O)(=O)C(C(=O)c1ccccc1)=C2
inactive: dose: 25.0 mg/kg/injection, schedule: Q04DX003 (ip), vehicle: saline with Tween-80 107 % of control and 86 % of control | dose: 50.0 mg/kg/injection, schedule: Q01DX001 (ip), vehicle: saline with Tween-80 93 % of control and 104 % of control | dose: 50.0 mg/kg/injection, schedule: Q04DX002 (ip), vehicle: Klucel (hydroxypropylcellulose) (HPC) 106 % of control | dose: 50.0 mg/kg/injection, schedule: Q04DX002 (ip), vehicle: saline with Tween-80 104 % of control and 105 % of control | [1] 93 % of control and 89 % of control | [2] 110 % of control | [3] 100 % of control and 91 % of control | [4] 93 % of control and 103 % of control | [5] 96 % of control and 89 % of control | [6] 93 % of control | [7] 93 % of control and 89 % of control

ClC1C2CC3C1C3C2C(Cl)(Cl)Cl (stereo not drawn)
inactive: [2] 103 % of control | [4] 100 % of control | [6] 90 % of control

C/C=C/C[P+](Cc1cccc(C)c1)(c1ccccc1)c1ccccc1
inactive: dose: 3.13 mg/kg/injection, schedule: Q01DX009 (ip), vehicle: saline with Tween-80 107 % of control | dose: 6.25 mg/kg/injection, schedule: Q01DX009 (ip), vehicle: saline with Tween-80 113 % of control | dose: 12.5 mg/kg/injection, schedule: Q01DX009 (ip), vehicle: saline with Tween-80 98 % of control

COC(C)=C1c2ccccc2-c2ccccc21
inactive: dose: 100.0 mg/kg/injection, schedule: Q01DX001 (ip), vehicle: Klucel (hydroxypropylcellulose) (HPC) 98 % of control | dose: 200.0 mg/kg/injection, schedule: Q01DX001 (ip), vehicle: Klucel (hydroxypropylcellulose) (HPC) 99 % of control | dose: 400.0 mg/kg/injection, schedule: Q01DX001 (ip), vehicle: Klucel (hydroxypropylcellulose) (HPC) 94 % of control

O=c1[nH]nc(/C=C/c2ccccc2)o1
inactive: dose: 50.0 mg/kg/injection, schedule: Q04DX003 (ip), vehicle: saline 103 % of control | [8] 95 % of control | [9] 97 % of control

CC(=O)NCc1ccc([N+](=O)[O-])cc1
inactive: [10] 100 % of control | [11] 107 % of control | [12] 104 % of control | [13] 111 % of control

CNC(=O)c1ccc(NC(=O)Nc2ccc(C3=NCCN3)cc2)cc1NC(=O)Nc1ccc(C2=NCCN2)cc1
inactive: dose: 2.0 mg/kg/injection, schedule: Q01DX Z (ip), vehicle: carboxymethylcellulose (CMC) 96 % of control | dose: 4.0 mg/kg/injection, schedule: Q01DX Z (ip), vehicle: carboxymethylcellulose (CMC) 112 % of control | dose: 62.0 mg/kg/injection, schedule: Q01DX Z (oral), vehicle: carboxymethylcellulose (CMC) 104 % of control | dose: 125.0 mg/kg/injection, schedule: Q01DX Z (oral), vehicle: carboxymethylcellulose (CMC) 105 % of control | dose: 250.0 mg/kg/injection, schedule: Q01DX Z (oral), vehicle: carboxymethylcellulose (CMC) 102 % of control | dose: 500.0 mg/kg/injection, schedule: Q01DX Z (oral), vehicle: carboxymethylcellulose (CMC) 102 % of control
active: dose: 17.0 mg/kg/injection, schedule: Q01DX Z (ip), vehicle: carboxymethylcellulose (CMC) 209 % of control and 351 % of control | dose: 27.0 mg/kg/injection, schedule: Q01DX Z (ip), vehicle: carboxymethylcellulose (CMC) 287 % of control | dose: 34.0 mg/kg/injection, schedule: Q01DX Z (ip), vehicle: carboxymethylcellulose (CMC) 239 % of control and 295 % of control | dose: 51.0 mg/kg/injection, schedule: Q01DX Z (ip), vehicle: carboxymethylcellulose (CMC) 209 % of control | dose: 68.0 mg/kg/injection, schedule: Q01DX Z (ip), vehicle: carboxymethylcellulose (CMC) 152 % of control

O=C1OCC2C1C1CCC2C1(Cl)Cl (stereo not drawn)
inactive: dose: 75.0 mg/kg/injection, schedule: Q01DX001 (ip), vehicle: other 98 % of control

CCCCOC(=O)c1ccc(NC(=S)NC(=O)COc2ccccc2)cc1
inactive: [2] 118 % of control | [4] 101 % of control | [6] 97 % of control

Cc1ccc(NC(=O)c2ccc(C(=O)Nc3ccc(C)cc3)cc2)cc1
inactive: dose: 56.0 mg/kg/injection, schedule: Q01DX Z (ip), vehicle: carboxymethylcellulose (CMC) 88 % of control | dose: 225.0 mg/kg/injection, schedule: Q01DX Z (ip), vehicle: carboxymethylcellulose (CMC) 92 % of control

COC(=O)C(C)CSP(=S)(Oc1ccccc1)Oc1ccccc1 (stereo not drawn)
inactive: dose: 100.0 mg/kg/injection, schedule: Q04DX002 (ip), vehicle: saline with Tween-80 105 % of control | dose: 200.0 mg/kg/injection, schedule: Q04DX002 (ip), vehicle: saline with Tween-80 105 % of control | [7] 102 % of control

CCCCCn1cnc2c(=S)nc[nH]c21
inactive: dose: 50.0 mg/kg/injection, schedule: Q01DX001 (ip), vehicle: carboxymethylcellulose (CMC) 92 % of control | dose: 100.0 mg/kg/injection, schedule: Q01DX001 (ip), vehicle: carboxymethylcellulose (CMC) 92 % of control | dose: 100.0 mg/kg/injection, schedule: Q01DX009 (ip), vehicle: acetone 93 % of control | [8] 92 % of control | dose: 200.0 mg/kg/injection, schedule: Q01DX001 (ip), vehicle: carboxymethylcellulose (CMC) 97 % of control | dose: 200.0 mg/kg/injection, schedule: Q01DX009 (ip), vehicle: acetone 95 % of control | [9] 100 % of control | dose: 400.0 mg/kg/injection, schedule: Q01DX001 (ip), vehicle: carboxymethylcellulose (CMC) 90 % of control | dose: 400.0 mg/kg/injection, schedule: Q01DX009 (ip), vehicle: acetone 93 % of control | [14] 103 % of control

CN1CCN(C(=O)Nc2cccc(F)c2)CC1
inactive: [10] 97 % of control | [11] 101 % of control | [12] 94 % of control and 96 % of control

CCCCCCCCC/C=C(\CCCCCCCCCC)c1cc(C)ccc1C
inactive: dose: 12.5 mg/kg/injection, schedule: Q04DX002 (ip), vehicle: saline with Tween-80 94 % of control

O=[N+]([O-])c1ccc(Oc2ccc(Cl)cc2Cl)c([N+](=O)[O-])c1
inactive: [1] 103 % of control | dose: 100.0 mg/kg/injection, schedule: Q04DX003 (ip), vehicle: saline with Tween-80 105 % of control | [3] 94 % of control | [5] 102 % of control | dose: 222.0 mg/kg/injection, schedule: Q01DX Z (ip), vehicle: methylcellulose (MC) 100 % of control | dose: 333.0 mg/kg/injection, schedule: Q01DX Z (ip), vehicle: methylcellulose (MC) 92 % of control | [15] 97 % of control | dose: 400.0 mg/kg/injection, schedule: Q04DX003 (ip), vehicle: saline with Tween-80 99 % of control | dose: 500.0 mg/kg/injection, schedule: Q01DX Z (ip), vehicle: methylcellulose (MC) 95 % of control

O=C(Nc1ncc([N+](=O)[O-])s1)c1cccc([N+](=O)[O-])c1
inactive: dose: 6.25 mg/kg/injection, schedule: Q01DX009 (ip), vehicle: Klucel (hydroxypropylcellulose) (HPC) 92 % of control | dose: 6.25 mg/kg/injection, schedule: Q04DX003 (ip), vehicle: Klucel (hydroxypropylcellulose) (HPC) 105 % of control | dose: 12.5 mg/kg/injection, schedule: Q01DX009 (ip), vehicle: Klucel (hydroxypropylcellulose) (HPC) 100 % of control | dose: 12.5 mg/kg/injection, schedule: Q04DX003 (ip), vehicle: Klucel (hydroxypropylcellulose) (HPC) 102 % of control | dose: 25.0 mg/kg/injection, schedule: Q01DX009 (ip), vehicle: Klucel (hydroxypropylcellulose) (HPC) 89 % of control | dose: 25.0 mg/kg/injection, schedule: Q04DX003 (ip), vehicle: Klucel (hydroxypropylcellulose) (HPC) 102 % of control

CCCCCSc1cccc(N)c1
inactive: [1] 112 % of control | [3] 102 % of control | [15] 97 % of control

CCOP(=S)(NCCOC)OCC
inactive: [12] 97 % of control | [13] 94 % of control | dose: 400.0 mg/kg/injection, schedule: Q01DX009 (ip), vehicle: saline with Tween-80 95 % of control

Cc1cccc(CCl)c1
inactive: dose: 37.5 mg/kg/injection, schedule: Q01DX009 (ip), vehicle: saline sonified 106 % of control | dose: 75.0 mg/kg/injection, schedule: Q01DX009 (ip), vehicle: saline sonified 95 % of control | [8] 102 % of control | dose: 150.0 mg/kg/injection, schedule: Q01DX009 (ip), vehicle: saline sonified 98 % of control | [9] 100 % of control | [14] 93 % of control
